The source of these data is US20260335314A1, “CRYSTALLINE SALTS OR AMORPHOUS FORMS OF 2-((1H-PYRAZOL-3-YL)METHYL)-6-((6-AMINOPYRIDIN-2-YL)METHYL)-4-METHYL-4,6-DIHYDRO -5H-THIAZOLO[5',4':4,5]PYRROLO[2,3-D]PYRIDAZIN-5-ONE” (Agios Pharmaceuticals, Inc., priority 2023, published 2026).

The term AUC(0-inf) denotes total exposure, with the tail of the curve extrapolated. The low end stands for less exposure, the high end for more exposure.

Converted amounts (≈) assume the structure as drawn.

Data set [1] in a line: Pharmacokinetics / absolute bioavailability in male Sprague Dawley rats. Format: in vivo. As to conditions: for AUC(0-inf): rat; for AUC(0-inf) / AUCinf: plasma. How it is done: Twenty-one (21) male Sprague Dawley rats (purchased from Shanghai Laboratory Animal Center Co., Ltd., Shanghai, China) were randomized into 7 groups (3 animals per group). The animals fasted overnight, the forms of Compound 1 shown in Table 7 were administered by oral gavage, and the animals were fed 4 hours post-dose.
Blood was serially collected from each animal at 0 (pre-dose), 0.083, 0.25, 0.5, 1, 2, 4, 8, and 24 h post-dose. For each collection, the animal was restrained manually, and approximately 150 μL of blood sample was collected via the tail vein into K2EDTA tubes. Plasma samples were stored at approximately −70° C. until analysis.
To enable the calculation of absolute bioavailability, Compound 1 was formulated as a solution in 10% N-methyl-2-pyrrolidone, 10% Solutol HS 15, and 80% saline and administered at 1 mg/kg as intravenous (IV) bolus dose to a separate group of male Sprague Dawley rats, and blood samples were collected at similar timepoints to those shown above. Further, plasma samples were obtained from the collected samples and stored at approximately −70° C. until analysis.
The concentration of Compound 1 in the plasma samples was determined by LC-MS/MS analysis.
A 20 μL aliquot of each plasma sample was mixed with 200 μL of acetonitrile containing glipizide as an internal standard (40 ng/mL). The resulting mixture was vortexed at 1500 rpm for 2 min and centrifuged at 5800 rpm for 10 min. A 1 μL sample from the supernatant was injected into LC-MS/MS.
LC-MS/MS analysis was conducted on a UPLC/MS-MS (API 6500+) system under the conditions outlined in Table 8
The absolute bioavailability of each form of Compound 1 was determined by dividing the AUCinf of the form in question by the AUCinf obtained historical data by IV administration of Compound 1.

A short description of another data set: pH solubility in buffers. It counts as physicochemical. As to conditions: for pH (24 h): pH of solution at 24 h; for solubility / solubility at 2 h: 37 °C. How it is done:
(§1) Solubility samples were prepared by weighing about 10 mg of each salt and adding 1 mL of media and vortexed briefly to obtain suspensions. […] For such instances, the solubility is calculated as greater than (>).
(§2) The sample vials were capped and wrapped in aluminum foil, and placed on a shaker at 37° C. The shaker was set at about 100 rpm and vials were removed at specified time points. The vials were observed, and the supernatants were transferred to Eppendorf tubes and centrifuged at 3K for 10 minutes. The clear supernatants were transferred to HPLC vials. The samples were diluted prior to HPLC analysis using the dilution media by 2× or used without dilution. pH was measured of the 24 hour timepoint after centrifugation using a micro pH probe.
(§3) • pH 2 buffer USP: Mixed 50 mL of 0.2M potassium chloride and 13 mL 0.2M HCl, diluted to 200 mL with water. • pH 4.5 buffer USP: 5.44 g of potassium dihydrogen phosphate was diluted to 1000 mL with water. • pH 6.8 buffer USP: Mixed 50 mL of 0.2M potassium phosphate and 22.4 mL 0.2M sodium hydroxide. Diluted with water to 200 mL. • SGF: 2.0109 g of NaCl was dissolved in water, added 7 mL of conc. HCl and diluted to 1 L. • FeSSIF: 4.0321 g of NaOH and 11.8726 g of NaCl were dissolved in water, added 8.65 mL of glacial acetic acid, adjusted the pH to 5.0 and diluted to 1 L. • FaSSIF: 0.4247 g of NaOH, 3.9548 g of sodium phosphate monobasic monohydrate and 6.1900 g of NaCl were dissolved in water, adjusted the pH to 6.5 and diluted to 1 L.
(§4) At each time point, the solution was analyzed by HPLC and residue was vacuum dried and analyzed by XRPD. The pH of the solution was measured at 24 hours.

Data set [2] in a line: Kinetic solubility in biorelevant media. Format: physicochemical. On the procedure: as §1, §2
as §3, with “adjusted the pH to 5.0 and diluted to 1 L. • FaSSIF:” left out
(§5) Kinetic solubility was determined in biorelevant media. At each time point, the solution was analyzed by HPLC. The solid residue was analyzed by XRPD at selected time points. The pH of the solution was measured at 24 hours.

Data set [3] in a line: XRPD of solid residue from solubility samples (salt disproportionation). Format: physicochemical. Conditions: FaSSIF residue. On the procedure:
as §4, §5

A short description of data set [4]: Dynamic vapor sorption (moisture uptake). Format: physicochemical. As to conditions: 25° C. On the procedure: Dynamic Vapor Sorption (DVS) was carried out using a TA Instruments Q5000 Dynamic Vapor Sorption analyzer. The instrument was calibrated with standard weights and a sodium bromide standard for humidity. Approximately 10-25 mg of sample was loaded into a metal-coated quartz pan for analysis. […] The movement from one step to the next occurred either after satisfying the equilibrium criterion of 0.01% weight change or, if the equilibrium criterion was not met, after one hour. The percent weight change values were calculated using Microsoft Excel®.

Where [5] appears, read: from 5% to 95% relative humidity.
Where [6] appears, read: from 2% to 95% relative humidity.

In the case of `Cn1c2nc(Cc3cc[nH]n3)sc2c2cnn(Cc3cccc(N)n3)c(=O)c21` [Compound 1, 2-((1H-pyrazol-3-yl)methyl)-6-((6-aminopyridin-2-yl)methyl)-4-methyl-4,6-dihydro-5H-thiazolo[5′,4′:4,5]pyrrolo[2,3-d]pyridazin-5-one], in data set [1] (IV administration (historical), 1 mg/kg, reference), the “Absolute % F” value is 100%. Further, in data set [1] (iv, 1 mg/kg, IV bolus (historical)), the AUC(0-inf) was found to be 1560 ng·h/mL.
Consider `Cn1c2nc(Cc3cc[nH]n3)sc2c2cnn(Cc3cccc(N)n3)c(=O)c21` [Form B], for which the “dissolution in 0.1N HCl” value in “pH solubility in buffers” (0.1N HCl) was “dissolved instantly”. Further, the “pH (24 h)” value in the data set “pH solubility in buffers” (0.1 N HCl) was 1.44; in the data set “pH solubility in buffers” (pH 2 (USP)), 2.26; in the data set “pH solubility in buffers” (pH 4.5 (USP)), 4.01; in the data set “pH solubility in buffers” (pH 6.8 (USP)), 5.09; in data set [2] (FaSSIF pH 6.5, pH of solution at 24 h), 3.39; in data set [2] (FeSSIF pH 5.0, pH of solution at 24 h) it was 4.79. Also, the “pH (24 h)” value in data set [2] (SGF pH 1.2, pH of solution at 24 h) was 1.0. The solubility was greater than 16700 µg/mL in “pH solubility in buffers” (0.1 n hcl, dissolved instantly, estimated by adding 100 uL aliquots, read-out: solubility); 2590 µg/mL (≈ 6600 µM) in “pH solubility in buffers” (pH 2 (USP), 2 h, 120 min); 2400 µg/mL (≈ 6120 µM) in the data set “pH solubility in buffers” (pH 2 (USP), 24 h, 1440 min); 270 µg/mL (≈ 688 µM) in “pH solubility in buffers” (pH 4.5 (USP), 24 h, 1440 min); 10 µg/mL (≈ 25.5 µM) in “pH solubility in buffers” (pH 6.8 (USP), 24 h, 1440 min); 0.38 (suspect) mg/mL in data set [2] (FaSSIF pH 6.5, 10 min, 37 °C, 10 min). For the same compound, the solubility is on record as 0.36 (suspect) mg/mL in data set [2] (FaSSIF pH 6.5, 30 min, 37 °C, 30 min); 0.24 mg/mL (≈ 612 µM) in data set [2] (FaSSIF pH 6.5, 1 h, 37 °C, 60 min); 0.57 mg/mL (≈ 1450 µM) in data set [2] (FaSSIF pH 6.5, 2 h, 37 °C, 120 min); 1.40 (suspect) mg/mL in data set [2] (FaSSIF pH 6.5, 4 h, 37 °C, 240 min); 0.70 mg/mL (≈ 1780 µM) in data set [2] (FaSSIF pH 6.5, 24 h, 37 °C, 1440 min); 0.08 mg/mL (≈ 204 µM) in data set [2] (FeSSIF pH 5.0, 1 h, 37 °C, 60 min). For the same compound, in data set [2] (sgf, pH 1.2, SGF pH 1.2, 37 °C, dissolved instantly, from total volume of media added, read-out: solubility), the solubility is greater than 10 mg/mL. Also, the solubility at 2 h in the data set “pH solubility in buffers” (ph 4.5 buffer (usp), pH 4.5, pH 4.5 (USP), 2 h) stood at 70 µg/mL (≈ 178 µM); in the data set “pH solubility in buffers” (ph 6.8 buffer (usp), pH 6.8, pH 6.8 (USP), 2 h) it was 30 µg/mL (≈ 76.4 µM); in data set [2] (fessif, pH 5, FeSSIF pH 5.0, 2 h, 37 °C), 110 µg/mL (≈ 280 µM). The solubility at 10 min in data set [2] (fessif, pH 5, FeSSIF pH 5.0, 10 min, 37 °C) turned out to be 340 µg/mL (≈ 866 µM). Moreover, the solubility at 0.5 h in data set [2] (fessif, pH 5, FeSSIF pH 5.0, 30 min, 37 °C) is 130 µg/mL (≈ 331 µM). In data set [2] (fessif, pH 5, FeSSIF pH 5.0, 4 h, 37 °C), this compound returned a solubility at 4 h of 100 µg/mL (≈ 255 µM). The compound further had a solubility at 24 h in data set [2] (fessif, pH 5, FeSSIF pH 5.0, 24 h, 37 °C) of 60 µg/mL (≈ 153 µM). The “dissolution in SGF” value in data set [2] (simulated gastric fluid (SGF)) was “dissolved instantly”. Besides, the “salt disproportionation by XRPD” value in data set [3] is listed as “some salt remained”. The “absolute bioavailability, comparison with other forms” value in data set [1] (oral gavage, 10 mg/kg) is listed as “higher than the measured bioavailability of the other forms of Compound 1”. This compound had an AUCinf in data set [1] (oral gavage, 10 mg/kg, fasted overnight) of 10846 ng·h/mL. Also, the “Absolute % F” value in data set [1] (oral gavage, 10 mg/kg, vs historical IV AUCinf, 10 mg/kg) is 70%. In addition, the “moisture uptake (DVS)” value in data set [4] (setting [5]) is recorded as “about 0.9%”.
`Cn1c2nc(Cc3cc[nH]n3)sc2c2cnn(Cc3cccc(N)n3)c(=O)c21` [Form D-1]: in data set [4] (setting [5]), the “moisture uptake (DVS)” value is reported as “about 2.8%”.
In the case of `Cn1c2nc(Cc3cc[nH]n3)sc2c2cnn(Cc3cccc(N)n3)c(=O)c21` [Form D-2], the “moisture uptake (DVS)” value in data set [4] (setting [6]) was “about 1.1%”.
`Cn1c2nc(Cc3cc[nH]n3)sc2c2cnn(Cc3cccc(N)n3)c(=O)c21` [Form E] gave an AUCinf in data set [1] (oral gavage, 10 mg/kg, fasted overnight, listed as Free Base Hydrate Form E (wet milled)) of 7378 ng·h/mL. For the same compound, the “Absolute % F” value in data set [1] (oral gavage, 10 mg/kg, vs historical IV AUCinf, listed as Free Base Hydrate Form E (Unmilled), 10 mg/kg) is on record as 45%; in data set [1] (oral gavage, 10 mg/kg, vs historical IV AUCinf, listed as Free Base Hydrate Form E (wet milled), 10 mg/kg) it was 47%. This compound also yielded an AUC(0-inf) in data set [1] (po, 10 mg/kg, oral gavage, fasted overnight) of 6960 ng·h/mL. Also, the “moisture uptake (DVS)” value in data set [4] (setting [5]) was “about 1.3%”.
Turning to `Cn1c2nc(Cc3cc[nH]n3)sc2c2cnn(Cc3cccc(N)n3)c(=O)c21.O=C(O)C(O)C(O)C(=O)O` [Form I], the “moisture uptake (DVS)” value in data set [4] (setting [6]) is reported as “about 10.5%”.
